{
  "source": "paper PMC10216180",
  "about": "“Dopamine Receptor Ligand Selectivity—An In Silico/In Vitro Insight” (Biomedicines, 2023)",
  "note": "Entries after “also recorded” stand apart in the source; their conditions may differ. Marks after values point to notes of the source that are not given here.",
  "data": [
    {"biological_target": "T1, D2R (Homo sapiens, UniProt P14416)", "T1 construct": "expressed in transfected cells; host or cells: D2R carrier cells (not described here)", "T1 sequence (P14416 whole entry)": "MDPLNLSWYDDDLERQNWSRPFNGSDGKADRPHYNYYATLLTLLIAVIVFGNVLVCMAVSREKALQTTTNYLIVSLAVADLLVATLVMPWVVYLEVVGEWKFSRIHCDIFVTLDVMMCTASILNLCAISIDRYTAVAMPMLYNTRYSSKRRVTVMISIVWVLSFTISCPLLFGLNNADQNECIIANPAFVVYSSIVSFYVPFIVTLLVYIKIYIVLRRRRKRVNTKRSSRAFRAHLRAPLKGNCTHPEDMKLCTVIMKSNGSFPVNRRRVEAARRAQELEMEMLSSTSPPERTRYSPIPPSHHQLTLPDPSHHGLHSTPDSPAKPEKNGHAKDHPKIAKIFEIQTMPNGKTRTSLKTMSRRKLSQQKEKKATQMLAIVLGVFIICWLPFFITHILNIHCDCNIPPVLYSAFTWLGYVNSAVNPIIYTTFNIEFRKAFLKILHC", "experiment": "HTRF Ki determination at D2R", "format": "binding", "details": "n = 6, ± SD; n.d. = not determinable (highest concentration 100 µM)", "experimental": "(§1) All HTRF assays were performed using an HTRF-compatible plate reader (model Tecan Spark (Tecan Group, Männedorf, Switzerland)). The respective settings were specifically modified and optimized for the determination of D2R ligand-binding affinities. Binding affinities were determined using the same settings for measurements with D1R and D3R carrier cells. […] Fluorophores were excited at 320 nm. A dichroic 510 mirror was used, while lag and integration times of 100 and 400 µs were applied, respectively. Flashes were set to 75. Electronic gain was automatically optimized, while the z-position was optimized based on the well with the highest expected signal. […] The first plate was used to determine the gain and the z-position. Subsequently, the determined values were set manually for the second plate to enable direct comparison between the different plates.\nThe characterization of the D2R carrier cells is detailed in [42].\n(§2) The Ki was determined in duplicates following the SOP available from PerkinElmer/cisbio and as described in Section 2.10.\n(§3) Saturation binding curves were processed and visualized in GraphPad Prism 8 (Nonlinear regression (curve fit), One site—Fit logIC50 was performed using GraphPad Prism version 8.2.1 for Windows, GraphPad Software, San Diego. CA, USA). Molecular docking was performed in GOLD 5.8.0 (CCDC, Cambridge, United Kingdom). […] Two-dimensional structures of all shown compounds were generated using ChemDraw version 19.0 (PerkinElmer, Waltham, MA, USA).", "values": [
      {"compound": "Oc1cccc(C(O)CNCc2cccc(Cl)c2Cl)c1", "note": "(centres unmarked) [Compound 4]", "Ki D2R": "inactive; also recorded: no determinable binding affinity; also recorded: no determinable binding affinities"},
      {"compound": "COc1cc(CC[C@H](C)NCc2ccccc2)ccc1O", "note": "[Compound 8]", "Ki D2R": "inactive; also recorded: no determinable binding affinity; also recorded: no determinable binding affinities"}
    ]},
    {"biological_target": "T2, D3R (Homo sapiens, UniProt P35462)", "T2 sequence (P35462 whole entry)": "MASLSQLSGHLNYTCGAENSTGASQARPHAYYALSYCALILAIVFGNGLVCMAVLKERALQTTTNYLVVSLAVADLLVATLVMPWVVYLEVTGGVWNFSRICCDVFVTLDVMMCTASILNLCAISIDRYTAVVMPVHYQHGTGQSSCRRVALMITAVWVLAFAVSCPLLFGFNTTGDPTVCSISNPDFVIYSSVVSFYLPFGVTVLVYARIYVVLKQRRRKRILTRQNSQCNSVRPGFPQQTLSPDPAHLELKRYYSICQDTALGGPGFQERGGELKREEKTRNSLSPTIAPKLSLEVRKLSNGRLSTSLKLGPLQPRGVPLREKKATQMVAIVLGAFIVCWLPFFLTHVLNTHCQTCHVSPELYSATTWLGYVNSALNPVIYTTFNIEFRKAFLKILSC", "experiment": "HTRF Ki determination at D3R", "format": "binding", "details": "Ki assumed ≥100 µM where n.d.", "experimental": "as §1\n(§4) The cells used for the subsequent screening and detailed investigation of D1R and D3R ligands were acquired from PerkinElmer/cisbio (Waltham, MA, USA; Tag-lite Dopamine D1 or D3a-labeled Cells, ready-to-use (transformed and labeled), 200 tests; C1TT1D1 and C1TT1D3A, respectively). The cells were stored in liquid nitrogen until further use. […] The assay was conducted according to the standard operation protocol (SOP) available from PerkinElmer/cisbio. The 96-well plates were incubated at room temperature for 2 h. The 96-well plates were read as described in Section 2.10. The respective concentrations of the dilution series were performed in triplicates. In total, Kd determination was performed twice.\nas §2, §3", "values": [
      {"compound": "Oc1cccc(C(O)CNCc2cccc(Cl)c2Cl)c1", "note": "(centres unmarked) [Compound 4]", "Selectivity D1R/D3R (Ki fold-difference)": ">27.2 ^b", "Selectivity D2R/D3R (Ki fold-difference)": ">27.2 ^b"},
      {"compound": "COc1cc(CC[C@H](C)NCc2ccccc2)ccc1O", "note": "[Compound 8]", "Selectivity D1R/D3R (Ki fold-difference)": ">43.1 ^b", "Selectivity D2R/D3R (Ki fold-difference)": ">43.1 ^b"}
    ]},
    {"biological_target": "T2, D3R", "experiment": "HTRF Ki determination at D3R", "format": "binding", "details": "n = 6, ± SD", "experimental": "as §1, §4, §2, §3", "units": {"Ki": "nM"}, "values": [
      {"compound": "Oc1cccc(C(O)CNCc2cccc(Cl)c2Cl)c1", "note": "(centres unmarked) [Compound 4]", "Ki": "3680 ± 940"},
      {"compound": "COc1cc(CC[C@H](C)NCc2ccccc2)ccc1O", "note": "[Compound 8]", "Ki": "2320 ± 920"}
    ]},
    {"biological_target": "D1R", "experiment": "not given", "details": "Table S3 D2like-selective dataset, radio-ligand binding; ref ChEMBL [56,69,72-106]; cited from earlier work", "units": {"Ki": "nM"}, "values": [
      {"compound": "SC144", "Ki": 1300},
      {"compound": "SC79", "Ki": 10000}
    ]},
    {"biological_target": "D1R", "experiment": "not given", "details": "Table S4 D3R-selective dataset, radio-ligand binding; ref ChEMBL [53,56,62-118]; cited from earlier work", "units": {"Ki": "nM"}, "values": [
      {"compound": "SC236", "Ki": 1270}
    ]},
    {"biological_target": "D2R", "experiment": "not given", "details": "Table S3 D2like-selective dataset, radio-ligand binding; ref ChEMBL [56,69,72-106]; cited from earlier work", "units": {"Ki": "nM"}, "values": [
      {"compound": "SC144", "Ki": 38},
      {"compound": "SC79", "Ki": 622}
    ]},
    {"biological_target": "D2R", "experiment": "not given", "details": "Table S4 D3R-selective dataset, radio-ligand binding; ref ChEMBL [53,56,62-118]; cited from earlier work", "units": {"Ki": "nM"}, "values": [
      {"compound": "SC236", "Ki": 2320}
    ]},
    {"biological_target": "T2, D3R", "experiment": "HTRF competitive binding screening (NDF) at D3R carrier cells", "details": "10 µM, n = 4, fluorescence decrease normalized to the control", "experimental": "as §1\n(§5) The cells used for the subsequent screening and detailed investigation of D1R and D3R ligands were acquired from PerkinElmer/cisbio (Waltham, MA, USA; Tag-lite Dopamine D1 or D3a-labeled Cells, ready-to-use (transformed and labeled), 200 tests; C1TT1D1 and C1TT1D3A, respectively). The cells were stored in liquid nitrogen until further use. Fluorescent-labelled ligands (Dopamine D2 Receptor red antagonist Fluorescent Ligand (L0002RED), stored at −20 °C and Dopamine D1 Receptor green antagonist (L0031GRE), stored at −20 °C), assay buffer (5Xconcentrate Tag-lite Buffer (TLB), 100 mL, stored at +4 °C; LABMED), and 96-well plates (HTRF 96-well low-volume white plate; 66PL96005) required for the in vitro assay were also acquired from PerkinElmer/cisbio. The assay was conducted according to the standard operation protocol (SOP) available from PerkinElmer/cisbio. The 96-well plates were incubated at room temperature for 2 h. The 96-well plates were read as described in Section 2.10. The respective concentrations of the dilution series were performed in triplicates. In total, Kd determination was performed twice.\n(§6) The investigated compounds were taken from a previous pharmacophore-based virtual screening study described in Zell et al.. The activities of all compounds were investigated via a competitive binding (in comparison with a fluorescence-labeled ligand) of the respective compounds at D1R/D3R, utilizing an HTRF assay using a screening concentration of 10 µM.", "values": [
      {"compound": "CN1CCc2cccc3c2[C@H]1Cc1ccc(O)c(O)c1-3", "note": "[Compound 1, apomorphine, reference compound]", "Normalized Decrease in Fluorescence (NDF) ± SD, D3R": "3.82 ± 1.32"},
      {"compound": "Oc1cccc(C(O)CNCc2cccc(Cl)c2Cl)c1", "note": "(centres unmarked) [Compound 4]", "Normalized Decrease in Fluorescence (NDF) ± SD, D3R": "2.75 ± 0.61"},
      {"compound": "COc1cc(CC[C@H](C)NCc2ccccc2)ccc1O", "note": "[Compound 8]", "Normalized Decrease in Fluorescence (NDF) ± SD, D3R": "2.63 ± 0.52"}
    ]},
    {"biological_target": "T3, D1R (Homo sapiens, UniProt P21728)", "T3 sequence (P21728 whole entry)": "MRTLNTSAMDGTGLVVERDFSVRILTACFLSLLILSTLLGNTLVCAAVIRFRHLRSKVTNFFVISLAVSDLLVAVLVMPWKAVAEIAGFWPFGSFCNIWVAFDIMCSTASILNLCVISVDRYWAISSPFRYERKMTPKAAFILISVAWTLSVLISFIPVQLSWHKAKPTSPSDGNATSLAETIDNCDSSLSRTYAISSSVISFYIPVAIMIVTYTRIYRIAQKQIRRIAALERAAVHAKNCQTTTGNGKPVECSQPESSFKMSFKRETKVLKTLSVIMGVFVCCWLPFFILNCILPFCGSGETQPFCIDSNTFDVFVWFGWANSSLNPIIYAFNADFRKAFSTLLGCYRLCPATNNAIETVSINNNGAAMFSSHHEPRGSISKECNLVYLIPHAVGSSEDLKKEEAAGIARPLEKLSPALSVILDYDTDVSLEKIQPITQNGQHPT", "experiment": "HTRF Ki determination at D1R", "format": "binding", "details": "n = 6, ± SD; n.d. = not determinable (highest concentration 100 µM)", "experimental": "as §1, §5, §2, §3", "values": [
      {"compound": "Oc1cccc(C(O)CNCc2cccc(Cl)c2Cl)c1", "note": "(centres unmarked) [Compound 4]", "Ki D1R": "inactive; also recorded: no determinable binding affinity; also recorded: no determinable binding affinities"},
      {"compound": "COc1cc(CC[C@H](C)NCc2ccccc2)ccc1O", "note": "[Compound 8]", "Ki D1R": "inactive; also recorded: no determinable binding affinity; also recorded: no determinable binding affinities"}
    ]},
    {"biological_target": "D3R", "experiment": "not given", "details": "Table S3 D2like-selective dataset, radio-ligand binding; ref ChEMBL [56,69,72-106]; cited from earlier work", "units": {"Ki": "nM"}, "values": [
      {"compound": "SC144", "Ki": 3},
      {"compound": "SC79", "Ki": 6.11}
    ]},
    {"biological_target": "D3R", "experiment": "not given", "details": "Table S4 D3R-selective dataset, radio-ligand binding; ref ChEMBL [53,56,62-118]; cited from earlier work", "units": {"Ki": "nM"}, "values": [
      {"compound": "SC236", "Ki": 214}
    ]},
    {"biological_target": "T3, D1R", "experiment": "HTRF competitive binding screening (NDF) at D1R carrier cells", "details": "10 µM, n = 4, fluorescence decrease normalized to the control", "experimental": "as §1, §5, §6", "values": [
      {"compound": "CN1CCc2cccc3c2[C@H]1Cc1ccc(O)c(O)c1-3", "note": "[Compound 1, apomorphine, reference compound]", "Normalized Decrease in Fluorescence (NDF) ± SD, D1R": "3.47 ± 1.04"},
      {"compound": "Oc1cccc(C(O)CNCc2cccc(Cl)c2Cl)c1", "note": "(centres unmarked) [Compound 4]", "Normalized Decrease in Fluorescence (NDF) ± SD, D1R": "0.90 ± 0.31"},
      {"compound": "COc1cc(CC[C@H](C)NCc2ccccc2)ccc1O", "note": "[Compound 8]", "Normalized Decrease in Fluorescence (NDF) ± SD, D1R": "1.20 ± 0.59"}
    ]},
    {"biological_target": "T1, D2R", "experiment": "not given", "details": "10 µM, n = 4, normalized to the control; cited from earlier work", "values": [
      {"compound": "CN1CCc2cccc3c2[C@H]1Cc1ccc(O)c(O)c1-3", "note": "[Compound 1, apomorphine, reference compound]", "Normalized Decrease in Fluorescence (NDF) ± SD, D2R": "9.44 ± 5.97"},
      {"compound": "Oc1cccc(C(O)CNCc2cccc(Cl)c2Cl)c1", "note": "(centres unmarked) [Compound 4]", "Normalized Decrease in Fluorescence (NDF) ± SD, D2R": "0.90 ± 0.39"},
      {"compound": "COc1cc(CC[C@H](C)NCc2ccccc2)ccc1O", "note": "[Compound 8]", "Normalized Decrease in Fluorescence (NDF) ± SD, D2R": "1.10 ± 0.52"}
    ]},
    {"biological_target": "T2, D3R", "experiment": "not given", "parameters": "method as in PMID 24061855, PMID 19331412", "details": "R22 analogues, linker length; cited from earlier work", "values": [
      {"compound": "O=C(NCCCCN1CCN(c2cccc(Cl)c2Cl)CC1)c1cc2ccccc2[nH]1", "note": "[C4 analogue]", "D2R/D3R-selectivity fold-difference": 45.7}
    ]}
  ]
}
